Test results taken from ChEMBL document CHEMBL1149107, “Structure-activity relationships of potent, selective inhibitors of neuronal nitric oxide synthase based on the 6-phenyl-2-aminopyridine structure” (J Med Chem, 2004).

Tests used:
Nitric oxide synthase 3 = biological target: T1, Nitric oxide synthase 3 (Homo sapiens, UniProt P29474); assay: In vitro inhibition of human endothelial nitric oxide synthase
T1 sequence (P29474 whole entry): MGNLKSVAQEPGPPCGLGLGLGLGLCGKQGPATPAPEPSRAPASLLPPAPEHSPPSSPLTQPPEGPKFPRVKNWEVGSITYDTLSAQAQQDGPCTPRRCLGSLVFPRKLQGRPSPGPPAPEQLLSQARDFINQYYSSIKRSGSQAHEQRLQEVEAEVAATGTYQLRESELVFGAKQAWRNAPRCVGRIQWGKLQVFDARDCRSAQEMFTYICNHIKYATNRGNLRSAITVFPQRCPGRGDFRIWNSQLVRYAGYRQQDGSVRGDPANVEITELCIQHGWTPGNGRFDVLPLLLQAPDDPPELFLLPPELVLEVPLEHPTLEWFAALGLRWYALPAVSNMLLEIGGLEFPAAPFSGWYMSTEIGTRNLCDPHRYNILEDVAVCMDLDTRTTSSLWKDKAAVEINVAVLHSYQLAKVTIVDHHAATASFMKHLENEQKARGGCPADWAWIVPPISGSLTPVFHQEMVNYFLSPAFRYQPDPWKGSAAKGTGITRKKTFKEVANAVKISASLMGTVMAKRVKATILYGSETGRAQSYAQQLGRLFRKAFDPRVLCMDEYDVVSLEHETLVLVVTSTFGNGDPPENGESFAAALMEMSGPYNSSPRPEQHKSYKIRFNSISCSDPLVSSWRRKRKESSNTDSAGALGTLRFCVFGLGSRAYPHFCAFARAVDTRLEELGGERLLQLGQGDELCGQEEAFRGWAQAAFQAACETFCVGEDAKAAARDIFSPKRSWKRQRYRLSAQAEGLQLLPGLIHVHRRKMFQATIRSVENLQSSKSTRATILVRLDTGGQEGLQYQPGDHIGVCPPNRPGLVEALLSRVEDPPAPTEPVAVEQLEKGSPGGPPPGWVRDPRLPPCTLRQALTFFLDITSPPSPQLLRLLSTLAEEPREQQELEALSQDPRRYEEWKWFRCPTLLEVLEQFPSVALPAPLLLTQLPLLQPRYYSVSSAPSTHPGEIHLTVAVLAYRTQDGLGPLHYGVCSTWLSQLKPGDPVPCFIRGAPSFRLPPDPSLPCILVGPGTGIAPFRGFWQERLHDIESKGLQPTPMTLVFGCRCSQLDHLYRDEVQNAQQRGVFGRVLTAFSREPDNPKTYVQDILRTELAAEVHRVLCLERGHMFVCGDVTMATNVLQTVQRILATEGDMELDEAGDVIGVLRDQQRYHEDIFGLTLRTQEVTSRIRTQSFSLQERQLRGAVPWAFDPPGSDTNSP

[1] = biological target: Nitric oxide synthase, inducible (Homo sapiens, UniProt P35228); assay: In vitro inhibition of human inducible nitric oxide synthase
Nitric oxide synthase, inducible, sequence (P35228 whole entry): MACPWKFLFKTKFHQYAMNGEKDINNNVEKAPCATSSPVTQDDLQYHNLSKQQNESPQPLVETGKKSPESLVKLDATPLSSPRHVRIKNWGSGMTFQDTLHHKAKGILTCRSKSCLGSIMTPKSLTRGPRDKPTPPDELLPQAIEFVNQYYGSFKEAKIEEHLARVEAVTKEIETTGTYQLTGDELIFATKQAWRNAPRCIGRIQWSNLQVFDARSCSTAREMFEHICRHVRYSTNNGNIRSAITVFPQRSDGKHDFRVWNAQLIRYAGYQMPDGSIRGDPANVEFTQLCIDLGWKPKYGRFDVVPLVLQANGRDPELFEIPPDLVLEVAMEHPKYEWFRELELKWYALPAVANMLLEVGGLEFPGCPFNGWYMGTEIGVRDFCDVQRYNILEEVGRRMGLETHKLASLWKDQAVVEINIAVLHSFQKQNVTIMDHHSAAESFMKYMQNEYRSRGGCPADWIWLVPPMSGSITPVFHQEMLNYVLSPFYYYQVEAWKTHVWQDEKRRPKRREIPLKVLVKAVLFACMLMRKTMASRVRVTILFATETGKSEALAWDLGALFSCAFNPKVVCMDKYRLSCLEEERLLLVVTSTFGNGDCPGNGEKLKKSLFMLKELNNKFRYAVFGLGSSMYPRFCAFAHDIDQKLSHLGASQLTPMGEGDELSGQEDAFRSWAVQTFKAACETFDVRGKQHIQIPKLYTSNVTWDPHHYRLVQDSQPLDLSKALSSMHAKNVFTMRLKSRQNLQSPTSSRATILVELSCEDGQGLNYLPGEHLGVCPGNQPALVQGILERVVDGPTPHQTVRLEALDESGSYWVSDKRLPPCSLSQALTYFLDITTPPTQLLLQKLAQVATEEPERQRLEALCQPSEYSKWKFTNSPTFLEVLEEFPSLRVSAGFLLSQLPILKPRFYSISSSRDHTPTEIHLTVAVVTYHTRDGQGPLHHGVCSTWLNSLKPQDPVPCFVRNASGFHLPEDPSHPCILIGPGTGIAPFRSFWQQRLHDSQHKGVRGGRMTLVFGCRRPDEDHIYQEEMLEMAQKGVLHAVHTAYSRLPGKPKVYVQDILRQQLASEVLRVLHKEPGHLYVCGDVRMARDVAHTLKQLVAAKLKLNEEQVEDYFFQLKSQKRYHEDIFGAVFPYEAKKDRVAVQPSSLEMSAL

Nitric oxide synthase 1 [2] = biological target: Nitric oxide synthase 1 (Homo sapiens, UniProt P29475); assay: In vitro inhibition of human neuronal nitric oxide synthase
Nitric oxide synthase 1 (Homo sapiens, UniProt P29475), sequence (P29475 whole entry): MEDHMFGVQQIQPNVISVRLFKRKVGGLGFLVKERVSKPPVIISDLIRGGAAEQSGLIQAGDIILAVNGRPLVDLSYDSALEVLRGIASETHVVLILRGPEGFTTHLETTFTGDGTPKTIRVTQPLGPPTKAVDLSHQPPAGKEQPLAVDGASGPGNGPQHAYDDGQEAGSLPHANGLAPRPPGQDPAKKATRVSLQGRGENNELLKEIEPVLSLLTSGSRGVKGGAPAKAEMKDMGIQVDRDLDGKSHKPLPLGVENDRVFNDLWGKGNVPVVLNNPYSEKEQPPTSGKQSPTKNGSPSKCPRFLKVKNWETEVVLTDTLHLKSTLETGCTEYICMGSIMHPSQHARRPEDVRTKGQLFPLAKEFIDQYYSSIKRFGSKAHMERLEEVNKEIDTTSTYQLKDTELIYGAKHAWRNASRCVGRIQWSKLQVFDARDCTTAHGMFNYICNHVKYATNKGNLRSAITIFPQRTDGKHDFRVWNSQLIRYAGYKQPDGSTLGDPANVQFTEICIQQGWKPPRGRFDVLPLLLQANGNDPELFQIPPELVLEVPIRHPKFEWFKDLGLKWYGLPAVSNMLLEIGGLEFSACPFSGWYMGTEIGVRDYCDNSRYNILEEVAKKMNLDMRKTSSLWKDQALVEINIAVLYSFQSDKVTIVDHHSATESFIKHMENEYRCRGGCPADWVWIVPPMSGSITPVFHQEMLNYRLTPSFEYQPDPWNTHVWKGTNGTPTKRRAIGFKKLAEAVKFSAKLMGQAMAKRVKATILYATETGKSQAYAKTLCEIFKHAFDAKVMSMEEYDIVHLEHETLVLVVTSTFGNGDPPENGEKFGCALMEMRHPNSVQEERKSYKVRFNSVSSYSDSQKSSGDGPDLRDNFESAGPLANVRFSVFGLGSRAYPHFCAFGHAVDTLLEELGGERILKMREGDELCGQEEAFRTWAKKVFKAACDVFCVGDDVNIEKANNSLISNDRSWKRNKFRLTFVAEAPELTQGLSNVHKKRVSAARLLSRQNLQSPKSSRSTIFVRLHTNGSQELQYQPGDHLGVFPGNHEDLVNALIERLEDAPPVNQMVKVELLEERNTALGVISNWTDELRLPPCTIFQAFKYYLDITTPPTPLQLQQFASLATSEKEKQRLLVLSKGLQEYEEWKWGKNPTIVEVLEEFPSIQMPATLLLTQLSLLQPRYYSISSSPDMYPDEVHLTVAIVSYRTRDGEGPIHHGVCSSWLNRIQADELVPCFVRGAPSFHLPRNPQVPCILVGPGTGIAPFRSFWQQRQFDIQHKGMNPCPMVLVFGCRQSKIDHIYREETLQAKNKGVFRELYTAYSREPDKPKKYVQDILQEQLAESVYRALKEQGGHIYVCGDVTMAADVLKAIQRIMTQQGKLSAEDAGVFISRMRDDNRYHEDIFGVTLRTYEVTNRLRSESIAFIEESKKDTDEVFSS

Nitric oxide synthase 1 [3] = biological target: Nitric oxide synthase 1 (Rattus norvegicus, UniProt P29476); assay: In vitro inhibition of rat neuronal nitric oxide synthase
Nitric oxide synthase 1 (Rattus norvegicus, UniProt P29476), sequence (P29476 whole entry): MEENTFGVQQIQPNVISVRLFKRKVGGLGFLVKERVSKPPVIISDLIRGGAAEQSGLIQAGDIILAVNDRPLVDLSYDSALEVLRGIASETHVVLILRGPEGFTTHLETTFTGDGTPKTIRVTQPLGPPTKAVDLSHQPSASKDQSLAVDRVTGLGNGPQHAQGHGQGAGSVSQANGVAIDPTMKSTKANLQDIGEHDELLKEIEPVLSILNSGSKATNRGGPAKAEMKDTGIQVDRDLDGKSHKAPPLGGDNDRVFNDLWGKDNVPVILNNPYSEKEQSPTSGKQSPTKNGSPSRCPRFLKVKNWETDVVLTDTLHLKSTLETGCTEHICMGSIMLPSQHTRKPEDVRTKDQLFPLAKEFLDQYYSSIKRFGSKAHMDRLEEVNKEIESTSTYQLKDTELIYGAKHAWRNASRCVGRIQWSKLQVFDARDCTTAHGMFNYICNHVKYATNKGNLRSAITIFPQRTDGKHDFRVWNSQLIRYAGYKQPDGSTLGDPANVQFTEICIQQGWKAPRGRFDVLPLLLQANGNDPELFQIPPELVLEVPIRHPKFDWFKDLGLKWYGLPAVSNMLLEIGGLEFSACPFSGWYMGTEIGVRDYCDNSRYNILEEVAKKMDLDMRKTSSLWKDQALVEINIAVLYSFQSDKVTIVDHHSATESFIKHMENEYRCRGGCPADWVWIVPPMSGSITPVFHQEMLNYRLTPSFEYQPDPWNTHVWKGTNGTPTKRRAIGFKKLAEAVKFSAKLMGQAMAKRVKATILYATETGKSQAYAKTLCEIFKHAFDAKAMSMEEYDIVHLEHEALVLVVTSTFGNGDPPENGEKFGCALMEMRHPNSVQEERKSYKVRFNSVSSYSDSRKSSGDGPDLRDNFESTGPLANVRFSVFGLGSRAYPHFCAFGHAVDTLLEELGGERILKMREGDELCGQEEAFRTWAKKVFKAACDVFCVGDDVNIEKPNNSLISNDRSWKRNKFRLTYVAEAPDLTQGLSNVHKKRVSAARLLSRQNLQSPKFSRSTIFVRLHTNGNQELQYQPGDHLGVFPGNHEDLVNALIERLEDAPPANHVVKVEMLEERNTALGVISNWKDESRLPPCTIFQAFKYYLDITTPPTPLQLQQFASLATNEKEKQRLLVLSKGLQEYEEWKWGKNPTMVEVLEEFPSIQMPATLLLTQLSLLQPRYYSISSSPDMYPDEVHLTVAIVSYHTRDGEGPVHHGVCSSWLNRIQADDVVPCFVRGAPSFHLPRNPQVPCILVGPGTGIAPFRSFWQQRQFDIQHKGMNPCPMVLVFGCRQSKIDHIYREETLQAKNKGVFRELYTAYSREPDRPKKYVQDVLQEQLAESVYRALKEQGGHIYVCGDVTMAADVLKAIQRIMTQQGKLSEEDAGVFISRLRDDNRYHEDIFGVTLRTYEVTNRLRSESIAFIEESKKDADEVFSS

Compound	IC50 (Nitric oxide synthase 3) [nM]	IC50 [1] [nM]	IC50 (Nitric oxide synthase 1 [2]) [nM]	IC50 (Nitric oxide synthase 1 [3]) [nM]
CN(C)CCOc1ccc(-c2cccc(N)n2)c2ccccc12	5790	4600	220	167
O=[N+]([O-])c1cccc2cn[nH]c12 [7-NITROINDAZOLE]			2500	
CN1CCCC1COc1ccc(-c2cccc(N)n2)c2ccccc12 (stereo unspecified)	2930	2850	112	80.5
CN(C)C1CCN(CCOc2ccc(-c3cccc(N)n3)c3ccccc23)CC1	7020	5750	203	195
CN1CCN(CCOc2ccc(-c3cccc(N)n3)c3ccccc23)CC1	12000	9380	390	306
CN1CCN(CCOc2ccc(-c3cccc(N)n3)c3c2CCCC3)CC1	10600	1280	121	99.2
Nc1cccc(-c2ccc(OCC3CC4CCN3CC4)c3ccccc23)n1 (stereo unspecified)	3770	5800	96.3	88
CN(C)CCOc1ccc(-c2cccc(N)n2)c2c1C1CCC2C1 (stereo unspecified)	19000	1080	120	185
Nc1cccc(-c2ccc(OCCN3CCCC3)c3ccccc23)n1	3710	1770	250	175
CN(C)C1CCCCC1Oc1ccc(-c2cccc(N)n2)c2ccccc12 (stereo unspecified)	13000	2370	161	140
CN1CCN(CCOc2ccc(-c3cccc(N)n3)c3c2CCC3)CC1	3030	2200	123	82
Nc1cccc(-c2ccc(OCCN3CCCC3)c3c2CCC3)n1	785	450	117	59
CN1CCC(Oc2ccc(-c3cccc(N)n3)c3ccccc23)C1 (stereo unspecified)	13000	2070	70.3	48
CN(C)CCOc1ccc(-c2cccc(N)n2)c2c1CCCC2	3530	517	70.9	34
CN(C)CCOc1ccc(-c2cccc(N)n2)c2c1CCCCC2	5750	2100	109	93
Nc1cccc(-c2ccc(OCCN3CCCC3)c3c2CCCC3)n1	2210	358	141	80
Cc1ccnc(N)c1				40
CN(C)CCOc1ccc(-c2cccc(N)n2)c2c1CCC2	1570	592	50.6	21.8
